Results: publication PMC10010643 (Cancer Chemotherapy and Pharmacology, 2023)
Read-outs that look alike come from different tables or passages of the source.

Assays:
human macrophages = system: human macrophages; parameters: method as in PMID 36154172; settings: in vitro; cited from earlier work
[1] = Urine PK, Part A single oral doses in healthy participants; type: in vivo, human; settings: for CL renal: human
Method: A further two cohorts were recruited. […] Each individual participated in one treatment period only, with the exception of the food-effect cohort (cohort A3) in which there were two treatment periods separated by at least 7 days washout. Participants resided at the Clinical Research Unit (CRU) from 1 day ahead of dosing (day − 1) to day 3 and returned for a follow-up visit 5–7 days after their final dose. For all cohorts, doses were administered in the fasted state in the morning of day 1 of Treatment Period 1. In the food-effect cohort, doses were given 30 min after the start of a high-fat breakfast (973 calories total: approximately 150 protein calories, 250 carbohydrate calories, and 500–600 fat calories) on day 1 of Treatment Period 2. For cohorts A1 to A5 in Treatment Period 1, dosing occurred such that one pair (one active and one placebo) were dosed at least 24 h before the remaining participants. Continuation to dose those who remained was at the investigator’s discretion. Escalating doses were administered following satisfactory sponsor and investigator review of the safety and tolerability data (up to 48 h post-final dose) and PK data (up to 24 h post-final dose) from the lower dose levels.
(§1) Urine was collected by spot collection in Part A only before dosing and between 0–6, 6–12, 12–24, and 24–48 h post-dose. Blood and urine aliquots were stored in polypropylene tubes at − 70 °C until bioanalysis.
Noncompartmental PK analysis was performed on individual plasma and urine concentration data, using Phoenix® WinNonlin® 8.1 software (Certara USA Inc., Princeton NJ). Plasma PK parameter endpoints for Part A included area under the plasma concentration–time curve (AUC) from time 0 to infinity (AUC0–∞), AUC from time 0 to the time of the last quantifiable concentration (AUC0–tlast), maximum observed plasma concentration (Cmax), time of the maximum observed plasma concentration (Tmax), terminal half-life in plasma (t½), apparent total plasma clearance (CL/F), and apparent volume of distribution (Vz/F). Urine PK parameters calculated in Part A included amount of drug excreted in urine (Ae), percentage of dose excreted unchanged in urine (fe) and renal clearance (CLR).

lung fibrosis = system: lung fibrosis; parameters: method as in PMID 36154172; settings: bleomycin-induced; cited from earlier work
[2] = Fraction of unbound GB1211 in plasma; type: in vitro ADME; settings: human
[3] = parameters: method as in PMID 36154172; settings: in mice; cited from earlier work
liver fibrosis = system: liver fibrosis; parameters: method as in PMID 36154172; settings: CCl4-induced; cited from earlier work
[4] = Plasma PK, Part B multiple oral BID doses in healthy participants; type: in vivo, human; settings: for concentration at 12 h / AUC / Cmax / Tmax / half-life / Vd/F: human, plasma, oral; for concentration at 12 h: read-out: Trough (12 h post-dose) concentration (Cmin), geometric mean (range); for AUC: read-out: AUC0-τ, geometric mean (CV%); for Cmax: read-out: Cmax, geometric mean (CV%); for half-life: read-out: t½, arithmetic mean (SD) (converted); for Vd/F: read-out: Vz/F, geometric mean (CV%)
Method: Following review of safety, tolerability, and PK data from cohorts A1–A6, participants received twice-daily doses (BID) under fasted conditions on days 1–9 and a final single dose in the morning of day 10. […] There was one treatment period and all participants stayed at the CRU from day − 1 until the morning of day 11 (24 h after the final dose on day 10). All were to return for a follow-up visit 5–7 days after their final dose.
Blood samples (4 mL) were collected in K3 EDTA tubes by venipuncture or cannulation. In Part A, samples were taken pre-dose and at 0.5, 1, 1.5, 2, 3, 4, 6, 8, 12, 16, 24, 36 and 48 h post-dose. In part B, samples were taken pre-dose on days 1 (pre-AM dose) and 10 (pre-final dose) and at 0.5, 1, 1.5, 2, 3, 4, 6, 8 and 12 h post-AM dose for day 1 and post-final dose for day 10. Samples were also taken on days 4–9 pre-AM dose, on day 11 at 24 and 36 h post-final dose, and on day 12 at 48 h post-final dose. Blood samples were centrifuged at 1500 g for 10 min at […] and split into two plasma aliquots.
as §1
In Part B, the plasma PK parameters included AUC over a dosing interval (AUC0–τ), AUC0–∞, Cmax, Tmax, t½, minimum observed plasma concentration (Cmin), observed accumulation ratio based on AUC0–τ (RAAUC0–τ) and observed accumulation ratio based on Cmax (RACmax). Further details can be found in the Supplementary materials.
Dose proportionality was analyzed for exposure parameters after fasted doses. The power model was used on AUC0–∞, AUC0–tlast, and Cmax on day 1 in Part A. Data were analyzed over two dose ranges: 50–400 mg (50 mg capsules) and 5–50 mg (5 mg capsules). An analysis of variance was used on AUC0–τ and Cmax on day 10 in Part B. The effect of food on AUC0–∞, AUC0–tlast, and Cmax at 50 mg in Part A was investigated using a mixed model which included treatment as a fixed effect and subject as a random effect.

[5] = single dose 5 mg (1 × 5 mg), fasted
[6] = single dose 20 mg (4 × 5 mg), fasted
[7] = single dose 50 mg (1 × 50 mg), fasted
[8] = single dose 50 mg (1 × 50 mg), fed
[9] = single dose 50 mg (10 × 5 mg), fasted
[10] = single dose 100 mg (2 × 50 mg), fasted
[11] = single dose 200 mg (4 × 50 mg), fasted
[12] = single dose 400 mg (8 × 50 mg), fasted
[13] = 50 mg, 50 mg BID, fasted, Day 1
[14] = 50 mg, 50 mg BID, fasted, Day 10
[15] = 100 mg, 100 mg BID, fasted, Day 1
[16] = 100 mg, 100 mg BID, fasted, Day 10

For `OC[C@H]1O[C@H](Sc2cncc(Br)c2)[C@H](O)[C@@H](n2cc(-c3cc(F)c(F)c(F)c3)nn2)[C@H]1O` [GB1211], the “Galectin-3 expression on human macrophages” value (human macrophages) is given as “potently inhibited galectin-3 expression”, the “Geometric mean fe(0–48 h), range across doses” value ([1]; 5–50 mg dose range (5 mg capsule)) is given as 26.8–30.0% and the “Geometric mean fe(0–48 h), range across doses” value ([1]; 50–400 mg dose range (50 mg capsules; fasted state)) is given as 10.5–18.7%. For the same compound, the Renal elimination mechanism ([1]; CLR greater than GFR corrected for fu) was “undergoes active secretion in the kidney”, the “Glomerular filtration rate corrected for the fraction of unbound GB1211 in plasma” value ([1]; GFR approximately 7.5 L/h, fu 5.34%) was “approximately 0.4 L/h” and the CL renal ([1]; urine and plasma, po, single oral dose, read-out: Geometric mean CLR, range across all doses) was 30.5 to 44.5 mL/min. For the same compound, the CL renal ([1]; urine, oral, 5 mg, single dose 5 mg (1 × 5 mg), fasted, read-out: CLR, geometric mean (CV%) (converted)) was 35.3 mL/min, the CL renal ([1]; urine, oral, 20 mg, single dose 20 mg (4 × 5 mg), fasted, read-out: CLR, geometric mean (CV%) (converted)) was 31.7 mL/min and the CL renal ([1]; urine, oral, 50 mg, single dose 50 mg (1 × 50 mg), fasted, read-out: CLR, geometric mean (CV%) (converted)) was 37.3 mL/min. For the same compound, the CL renal ([1]; urine, oral, 50 mg, single dose 50 mg (1 × 50 mg), fed, read-out: CLR, geometric mean (CV%) (converted)) was 36.7 mL/min, the CL renal ([1]; urine, oral, 50 mg, single dose 50 mg (10 × 5 mg), fasted, read-out: CLR, geometric mean (CV%) (converted)) was 32.3 mL/min and the CL renal ([1]; urine, oral, 100 mg, single dose 100 mg (2 × 50 mg), fasted, read-out: CLR, geometric mean (CV%) (converted)) was 43.2 mL/min. The CL renal ([1]; urine, oral, 200 mg, single dose 200 mg (4 × 50 mg), fasted, read-out: CLR, geometric mean (CV%) (converted)) was 30.5 mL/min, the CL renal ([1]; urine, oral, 400 mg, single dose 400 mg (8 × 50 mg), fasted, read-out: CLR, geometric mean (CV%) (converted)) was 44.5 mL/min and the “Ae (0–48 h), geometric mean (CV%)” value [1, 5] was 1.43 (27.0) mg. The “fe (0–48 h), geometric mean (CV%)” value [1, 5] was 28.7 (27.0) %, the “Ae (0–48 h), geometric mean (CV%)” value [1, 6] was 6.00 (19.7) mg and the “fe (0–48 h), geometric mean (CV%)” value [1, 6] was 30.0 (19.7) %. For the same compound, the “Ae (0–48 h), geometric mean (CV%)” value [1, 7] was 9.34 (44.1) mg, the “fe (0–48 h), geometric mean (CV%)” value [1, 7] was 18.7 (44.1) % and the “Ae (0–48 h), geometric mean (CV%)” value [1, 8] was 10.9 (33.5) mg. For the same compound, the “fe (0–48 h), geometric mean (CV%)” value [1, 8] was 21.7 (33.5) %, the “Ae (0–48 h), geometric mean (CV%)” value [1, 9] was 13.4 (38.7) mg and the “fe (0–48 h), geometric mean (CV%)” value [1, 9] was 26.8 (38.7) %. The “Ae (0–48 h), geometric mean (CV%)” value [1, 10] was 15.3 (34.8) mg, the “fe (0–48 h), geometric mean (CV%)” value [1, 10] was 15.3 (34.8) % and the “Ae (0–48 h), geometric mean (CV%)” value [1, 11] was 21.0 (28.0) mg. For the same compound, the “fe (0–48 h), geometric mean (CV%)” value [1, 11] was 10.5 (28.0) %, the “Ae (0–48 h), geometric mean (CV%)” value [1, 12] was 50.7 (33.6) mg and the “fe (0–48 h), geometric mean (CV%)” value [1, 12] was 12.7 (33.6) %. The “Fibrosis in vivo, lung” value (lung fibrosis) was “reducing fibrosis”, the fraction unbound [2] was 0.0534 and the Oral bioavailability [3] was 68%. The “Fibrosis in vivo, liver” value (liver fibrosis) was “reducing fibrosis”, the “CL/F, geometric mean (CV%)” value ([4]; 50 mg BID, fasted, Day 10) was 9.75 (29.0) L/h and the “Cmin, geometric mean (CV%)” value ([4]; 50 mg BID, fasted, Day 10) was 249 (26.2) ng/mL. The “CL/F, geometric mean (CV%)” value ([4]; 100 mg BID, fasted, Day 10) was 13.3 (21.1) L/h, the “Cmin, geometric mean (CV%)” value ([4]; 100 mg BID, fasted, Day 10) was 338 (27.5) ng/mL and the “t½, arithmetic mean (SD)” value ([4]; 100 mg BID, fasted, Day 10) was 13.1 (2.65) h. The “Dose proportionality of AUC0–τ and Cmax” value ([4]; 50 and 100 mg BID, day 10) was “sub-proportional manner”, the “Time to steady-state after the start of the BID multiple-dosing period” value ([4]; by the morning of day 3) was 48 h and the concentration at 12 h ([4]; 50 mg BID, day 10) was 249 ng/mL. It also gave an AUC [4, 13] of 2220 ng·h/mL, a Cmax [4, 13] of 330 ng/mL and a Tmax ([4]; 50 mg, 50 mg BID, fasted, Day 1, read-out: Tmax, median (min–max)) of 4 h. The AUC [4, 14] was 5130 ng·h/mL, the Cmax [4, 14] was 658 ng/mL and the Tmax ([4]; 50 mg, 50 mg BID, fasted, Day 10, read-out: Tmax, median (min–max)) was 2.5 h. It also gave a half-life [4, 14] of about 21.4 h, a concentration at 12 h ([4]; 100 mg BID, day 10) of 338 ng/mL and an AUC [4, 15] of 3560 ng·h/mL. For the same compound, the Cmax [4, 15] was 546 ng/mL, the Tmax ([4]; 100 mg, 100 mg BID, fasted, Day 1, read-out: Tmax, median (min–max)) was 3 h and the AUC [4, 16] was 7530 ng·h/mL. It also gave a Cmax [4, 16] of 975 ng/mL, a Tmax ([4]; 100 mg, 100 mg BID, fasted, Day 10, read-out: Tmax, median (min–max)) of 3 h and a half-life [4, 16] of about 13.1 h. For the same compound, the Tmax ([4]; multiple BID doses, days 1 and 10, read-out: Median Tmax, range) was 2.5 to 4 h, the Vd/F ([4]; 50 mg BID, fasted, Day 10) was 311 L and the Vd/F ([4]; 100 mg BID, fasted, Day 10) was 248 L. The “Accumulation in plasma with multiple dosing” value ([4]; multiple BID oral dosing) was “~ twofold” and the Time to steady-state ([4]; multiple BID oral dosing) was at most 3 days.
